As a reminder, the IC50 is the concentration at which inhibition is half-maximal.

The record followed here is ChEMBL document CHEMBL5260847, “Current scenario of indole derivatives with potential anti-drug-resistant cancer activity” (Eur J Med Chem, 2020).

Some results are limits rather than exact numbers.

Assay [1] relates to HCT-116. As to the kind of experiment: Antiproliferative activity against human HCT-116. In kind it is functional, cell-based.
Assay [2] relates to HeLa. As to the kind of experiment: Anticancer activity against human HeLa cells assessed as inhibition of cell growth. The format is functional, cell-based.
The subject of assay [3] is PC-3. As to the kind of experiment: Antitumor activity in human PC-3 cells xenografted immunodeficient ICR mouse assessed as reduction in tumor growth at 25 mg/kg, ip administered for 2 weeks. In kind it is functional. Details: scale not given: the % may be the effect or the level left. (In xenograft studies the graft and the host belong to different species.)
The test system of assay [4] is PC-3. As to the kind of experiment: Antitumor activity in human PC-3 cells xenografted immunodeficient ICR mouse assessed as reduction in tumor growth at 0.5 mg/kg, ip administered for 2 weeks in presence of vinblastine. The format is functional. Further details: scale not given: the % may be the effect or the level left.
In assay [5] the test system is A549. In words: Antiproliferative activity against human A549 cells assessed as reduction in cell viability after 48 hrs by CellTiter-Blue assay. The format is functional, cell-based. The following applies: A549, 48 h. A general note: Resazurin is reduced to fluorescent resorufin, in cell work by metabolically active cells.
In assay [6] the test system is HT-29. As to the kind of experiment: Antiproliferative activity against human HT-29 cells assessed as reduction in cell viability incubated for 72 hrs by MTT assay. The format is functional, cell-based. The following applies: HT-29, 72 h. (In general: Formazan colour is commonly taken as a measure of viable cells.)
In assay [7] the test system is LS180. In words: Antitumor activity against human LS180 cells xenografted in ICR mouse assessed as tumor growth inhibition at 4.5 mg/kg. In kind it is functional. Further details: scale not given: the % may be the effect or the level left.
The test system of assay [8] is LS180. In words: Antitumor activity against human LS180 cells xenografted in ICR mouse assessed as tumor growth inhibition at 45 mg/kg. Further details: scale not given: the % may be the effect or the level left. The format is functional.
Assay [9] has as its system MCF7. As to the kind of experiment: Antiproliferative activity against Doxorubicin resistant human MCF7 cells assessed as reduction in cell viability. The format is functional, cell-based.
Assay [10] deals with A549. In words: Antiproliferative activity against human Non-small-cell lung cancer A549 cells assessed as reduction in cell viability incubated for 72 hrs by MTT assay. In kind it is functional, cell-based. The following applies: A549, 72 h.
Assay [11] concerns ZR-75-1. As to the kind of experiment: Antiproliferative activity against multi-drug resistant human ZR-75-1 cells assessed as reduction in cell viability. In kind it is functional, cell-based.
For assay [12], the system named is ZR-75-1. As to the kind of experiment: Antiproliferative activity against human ZR-75-1 cells assessed as reduction in cell viability celltiter-Glo assay. In kind it is functional, cell-based.
For assay [13], the system named is H69AR. As to the kind of experiment: Antiproliferative activity against multidrug resistant human NCI-H69AR assessed as inhibition of cell proliferation by MTT assay. The format is functional, cell-based.
For assay [14], the system named is HT-29. In words: Antiproliferative activity against human HT-29 cells assessed as reduction in cell viability celltiter-Glo assay. In kind it is functional, cell-based.
Assay [15] deals with H69AR. As to the kind of experiment: Antiproliferative activity against multi-drug resistant human NCI-H69AR assessed as reduction in cell viability. The format is functional, cell-based.

For `O=C1/C(=N\O)c2ccccc2N1CCOCCN1C(=O)/C(=N/O)c2ccccc21`, the IC50 in assay [1] and in assay [2] was 6.23 µM throughout.

For `CC1(C)C([C@@H](Cc2c[nH]c3ccccc23)C(=O)OCc2ccccc2)C(=O)[C@@H]2Cc3c([nH]c4ccccc34)CN21` (stereo partly specified), the Activity in assay [3] turned out to be 40%; in [4] it was 50%.

In the case of `COc1ccc2c(c1)/C(=N/NC(=O)c1cc3cc(OC)ccc3[nH]1)C(=O)N2Cc1ccccc1`, the concentration for half-maximal inhibition (IC50) in assay [5] is 0.54 µM; in assay [6] it was 2.94 µM.

For `CCO[C@]1(C)C[C@@H]2CN(CCc3c([nH]c4ccccc34)[C@@](C(=O)OC)(c3cc4c(cc3OC)N(C)C3[C@]45CCN4CC=C[C@@](CC)([C@@H](OC(C)=O)[C@]3(O)C(=O)OC)[C@H]45)C2)C1` (stereo partly specified), the results for the Activity in [7] and in assay [8] were 40.7% and 67.8%, respectively.

With `CCN(CC)CCNC(=O)c1c(C)[nH]c(/C=C2\C(=O)Nc3ccc(F)cc32)c1C` [SUNITINIB], the IC50 in assay [9] was greater than 100 µM; in [5], 10.1 µM; in [10] it was 3.06 µM; in assay [11], 18.9 µM; in assay [12], 5.87 µM; in [13] it was 5.8 µM. Also, the concentration for half-maximal inhibition (IC50) in [14] worked out at 10.1 µM; in [15], 5.8 µM.
